Activity calls are given as the source filed them. No cut-off for these calls is given here.
What was measured:
Assay type in all cases: functional, cell-based
HeLa [1] = assay: Induction of pexophagy in human HeLa cells expressing HyPer-PTS1 assessed as reduction in peroxisome numbers at 5 uM incubated for 48 hrs in presence of ROS scavenger NAC by immunostaining based analysis
HeLa [2] = assay: Induction of autophagy in human HeLa cells assessed as reduction in peroxisomes number in mitochondria at 5 uM incubated for 48 hrs in presence of TOMM20 antibody by fluorescence microscopic analysis
TERT-RPE1 = assay: Induction of pexophagy in human TERT-RPE1 cells expressing mRFP-EGFP-SKL assessed as increase in red-only puncta at 5 uM incubated for 48 hrs by fluorescence microscopic analysis
HeLa [3] = assay: Induction of pexophagy in ATG5 knockout human HeLa cells assessed as reduction in peroxisomes at 5 uM incubated for 48 hrs by immunostaining based analysis
HeLa [4] = assay: Induction of pexophagy in wild-type human HeLa cells assessed as reduction in peroxisomes at 5 uM incubated for 48 hrs by immunostaining based analysis
HeLa [5] = assay: Induction of pexophagy in wild-type human HeLa cells assessed as decrease in ABCD3 protein expression at 5 uM incubated for 48 hrs by Western blot analysis
HeLa [6] = assay: Induction of pexophagy in human HeLa cells assessed as increase in ATM phosphorylation at serine 1981 residue at 5 uM measured at 48 hrs by Western blot analysis
HeLa [7] = assay: Induction of pexophagy in wild-type human HeLa cells assessed as […] in LC3II protein expression at 5 uM incubated for 48 hrs by Western blot analysis
HeLa [8] = assay: Induction of autophagic flux in human HeLa cells at 5 uM preincubated for 36 hrs followed by addition of Bafilomycin A1 and measured after 12 hrs by Western blot analysis; settings: time 48.0 hrs
HeLa [9] = assay: Induction of TFEB nuclear translocation in human HeLa cells assessed as decrease in TFEB phoshorylation at 5 uM measured at 48 hrs by Western blot analysis
HeLa [10] = assay: Induction of pexophagy in human HeLa cells expressing HyPer-PTS1 assessed as increase in peroxisomal ROS levels at 5 uM incubated for 48 hrs in presence of ROS scavenger NAC by fluorescence based analysis
HeLa [11] = assay: Induction of pexophagy in wild-type human HeLa cells assessed as decrease in LC3I protein expression at 5 uM incubated for 48 hrs by Western blot analysis
HeLa [12] = assay: Induction of pexophagy in ATG5 knockout human HeLa cells assessed as decrease in LC3I protein expression at 5 uM incubated for 48 hrs by Western blot analysis
HeLa [13] = assay: Induction of pexophagy in ATG5 knockout human HeLa cells assessed as decrease in ABCD3 protein expression at 5 uM incubated for 48 hrs by Western blot analysis
HeLa [14] = assay: Induction of pexophagy in human HeLa cells at 5 uM measured at 48 hrs by immunostaining based analysis
HeLa [15] = assay: Induction of pexophagy in human HeLa cells assessed as reduction in peroxisomes at 5 uM incubated for 48 hrs treated with Bafilomycin A1 by immunostaining based analysis
HeLa [16] = assay: Induction of TFEB nuclear translocation in human HeLa cells expressing EGFP-TFEB at 5 uM measured at 48 hrs in presence of ROS scavenger NAC by fluorescence microscopic analysis
HeLa [17] = assay: Induction of pexophagy in human HeLa cells assessed as increase in ROS levels at 5 uM incubated for 48 hrs in presence of ROS scavenger NAC by DCFH-DA staining based assay
HeLa [18] = assay: Induction of pexophagy in ATG5 knockout human HeLa cells assessed as […] in LC3II protein expression at 5 uM incubated for 48 hrs by Western blot analysis
HeLa [19] = assay: Induction of pexophagy in human HeLa cells assessed as increase in ATM phosphorylation at serine 1981 residue at 5 uM cotreated with ROS scavenger NAC measured at 48 hrs by Western blot analysis
HeLa [20] = assay: Induction of autophagy in human HeLa cells assessed as reduction in peroxisomes number in endoplasmic reticulum at 5 uM incubated for 48 hrs in presence of P4HB antibody by fluorescence microscopic analysis
HeLa [21] = assay: Induction of pexophagy in human HeLa cells expressing HyPer-PTS1 assessed as reduction in peroxisome numbers at 5 uM incubated for 48 hrs by immunostaining based analysis
HeLa [22] = assay: Induction of TFEB nuclear translocation in human HeLa cells assessed as decrease in TFEB phoshorylation at 5 uM cotreated with ROS scavenger NAC measured at 48 hrs by Western blot analysis
HeLa [23] = assay: Induction of pexophagy in human HeLa cells assessed as reduction in peroxisome numbers at 5 uM incubated for 48 hrs in presence of anti-ABCD3 antibody by immunostaining based analysis
HeLa [24] = assay: Induction of autophagy in human HeLa cells assessed as reduction in peroxisomes number golgi apparatus at 5 uM incubated for 48 hrs in presence of FTCD antibody by fluorescence microscopic analysis
HeLa [25] = assay: Induction of pexophagy in human HeLa cells at 5 uM cotreated with KU55933 measured at 48 hrs by immunostaining based analysis

## Cc1ccc(OCCn2c(C)c(C=C3C(=O)NC(=S)NC3=O)c3ccccc32)c(C)c1
HeLa [1]
  Activity: inactive
HeLa [2]
  Activity: Active
TERT-RPE1
  Activity: Active
HeLa [3]
  Activity: inactive
HeLa [4]
  Activity: Active
HeLa [5]
  Activity: Active
HeLa [6]
  Activity: Active
HeLa [7]
  Activity: Active
HeLa [8]
  Activity: Active
HeLa [9]
  Activity: Active
HeLa [10]
  Activity: Active
HeLa [11]
  Activity: Active
HeLa [12]
  Activity: inactive
HeLa [13]
  Activity: inactive
HeLa [14]
  Activity: Active
HeLa [15]
  Activity: Active
HeLa [16]
  Activity: Active
HeLa [17]
  Activity: Active
HeLa [18]
  Activity: inactive
HeLa [19]
  Activity: inactive
HeLa [20]
  Activity: Active
HeLa [21]
  Activity: Active
HeLa [22]
  Activity: inactive
HeLa [23]
  Activity: Active
HeLa [24]
  Activity: Active
HeLa [25]
  Activity: Active

Source: ChEMBL document CHEMBL6134803, “ZLDI-8 facilitates pexophagy by ROS-mediated activation of TFEB and ATM in HeLa cells” (Bioorg Med Chem Lett, 2025)
